In general, IC50 refers to the concentration that gives 50% inhibition.

Where a name gives a salt, the structure may show the parent alone. Some results are limits rather than exact numbers.

Data on 36 compounds can be found in US8278304B2, “Substituted 4-hydroxypyrimidine-5-carboxamides” (Merck Sharp & Dohme Corp., priority 2008, dated 2012).

The assay deals with T1, PHD2 (Homo sapiens, UniProt Q9GZT9).
T1 construct: FLAG-tagged full length PHD2 expressed in and purified from baculovirus-infected Sf9 cells; FLAG; made in house; host or cells: baculovirus-infected Sf9 cells
Briefly: PHD2 / HIF-1α peptide hydroxylation assay, time resolved fluorescence (VHL complex detection). The class given is biochemical. The conditions noted are these: FLAG-tagged full length PHD2; 0.2 μM 2-oxoglutarate, 0.5 μM HIF-1α peptide; read-out: PHD2 Activity (PHD2 binding activity expressed as IC50 (nM)). The protocol: To each well of a 96-well plate was added 1 μL of test compound in DMSO and 20 μl of assay buffer (50 mM Tris pH 7.4/0.01% Tween-20/0.1 mg/ml bovine serum albumin/10 μM ferrous sulfate/1 mM sodium ascorbate/20 μg/ml catalase) containing 0.15 μg/ml FLAG-tagged full length PHD2 expressed in and purified from baculovirus-infected Sf9 cells. After a 30 min preincubation at room temperature, the enzymatic reactions were initiated by the addition of 4 μL of substrates (final concentrations of 0.2 μM 2-oxoglutarate and 0.5 μM HIF-1α peptide biotinyl-[…]).

T1 sequence (Q9GZT9 whole entry): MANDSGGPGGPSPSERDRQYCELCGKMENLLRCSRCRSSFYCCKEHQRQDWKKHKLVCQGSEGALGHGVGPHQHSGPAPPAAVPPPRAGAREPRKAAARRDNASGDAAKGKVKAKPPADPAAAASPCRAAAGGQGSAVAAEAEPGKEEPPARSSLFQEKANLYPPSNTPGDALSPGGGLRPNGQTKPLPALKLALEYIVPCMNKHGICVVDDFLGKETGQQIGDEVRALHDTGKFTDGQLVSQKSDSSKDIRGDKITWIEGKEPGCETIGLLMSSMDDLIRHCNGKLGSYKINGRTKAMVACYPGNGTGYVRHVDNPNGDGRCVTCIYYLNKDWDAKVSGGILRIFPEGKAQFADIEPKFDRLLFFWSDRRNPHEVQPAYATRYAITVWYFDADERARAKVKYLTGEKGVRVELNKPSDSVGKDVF

As for `CCN(NC(=O)c1cnc(-n2cccn2)nc1O)c1ccccc1` [Example 76, N′-Ethyl-4-hydroxy-N′-phenyl-2-(1H-pyrazol-1-yl)pyrimidine-5-carbohydrazide trifluoroacetate (salt)], the half-maximal inhibitory concentration (IC50) was in the range of 10 to 100 nM.

Consider `O=C(NC(c1ccc(O)cc1)c1ccc(O)cc1)c1cnc(-c2cccnn2)nc1O` [Example 6, N-[bis(4-hydroxyphenyl)methyl]-4-hydroxy-2-ylpyridazin-3-ylpyrimidine-5-carboxamide], for which the IC50 was no more than 10 nM.

In the case of `O=C(NCc1ccc(C(F)(F)F)nc1)c1cnc(-n2cccn2)nc1O` [Example 10], the IC50 was 10 to 100 nM.

For `Cc1ccccc1Oc1ccc(CNC(=O)c2cnc(-n3cccn3)nc2O)cc1` [Example 100, 4-hydroxy-N-[4-(2-methylphenoxy)benzyl]-2-(1H-pyrazol-1-yl)pyrimidine-5-carboxamide], the half-maximal inhibitory concentration (IC50) was no more than 10 nM.

For `CC(NC(=O)c1cnc(-c2ccccn2)nc1O)c1ccc(F)cc1` (stereo not drawn) [Example 12, N-[1-(4-fluorophenyl)ethyl]-4-hydroxy-2-pyridin-2-ylpyrimidine-5-carboxamide], the IC50 lay in the range of 10 to 100 nM.

With `CC(C)C(NC(=O)c1cnc(-n2cccn2)nc1O)c1ccccc1` (stereo not drawn) [Example 131, 4-hydroxy-N-(2-methyl-1-phenylpropyl)-2-(1H-pyrazol-1-yl)pyrimidine-5-carboxamide], the half-inhibitory concentration (IC50) is no more than 10 nM.

As for `O=C(NC(c1ccccc1)c1ccc(C(F)(F)F)nc1)c1cnc(-n2cccn2)nc1O` (single isomer, unassigned) [Example 142, 4-hydroxy-N-{phenyl[6-(trifluoromethyl)pyridin-3-yl]methyl}-2-(1H-pyrazol-1-yl)pyrimidine-5-carboxamide], the IC50 is no more than 10 nM.

On to `O=C(NCc1ccc(C(F)(F)F)cn1)c1cnc(-n2cccn2)nc1O` [Example 130, 4-hydroxy-2-(1H-pyrazol-1-yl)-N-{[5-(trifluoromethyl)pyridin-2-yl]methyl}pyrimidine-5-carboxamide], for which the IC50 was in the range of 10 to 100 nM.

Take `O=C(NC(c1ccccc1)c1ccccc1)c1cnc(-c2ccc[nH]2)nc1O` [Example 45, N-(diphenylmethyl)-4-hydroxy-2-(1H-pyrrol-2-yl)pyrimidine-5-carboxamide]: the IC50 fell in the range of 100 to 1000 nM.

As for `Cc1nc(-c2ncc(C(=O)NCc3cccc(-c4ccccc4)c3)c(O)n2)cs1` [Example 42, N-(biphenyl-3-ylmethyl)-4-hydroxy-2-(2-methyl-1,3-thiazol-4-yl)pyrimidine-5-carboxamide], the IC50 is 10 to 100 nM.

Turning to `O=C(NCc1ccc(F)cc1)c1cnc(-c2ccccn2)nc1O` [Example 7, N-(4-fluorobenzyl)-4-hydroxy-2-pyridin-2-ylpyrimidine-5-carboxamide], the IC50 was 100 to 1000 nM.

Consider `Cc1nc(-c2ncc(C(=O)NC(c3ccccc3)c3ccccc3)c(O)n2)cs1` [Example 39, N-(diphenylmethyl)-4-hydroxy-2-(2-methyl-1,3-thiazol-4-yl)pyrimidine-5-carboxamide], for which the IC50 fell in the range of 10 to 100 nM.

Take `C[C@H](NC(=O)c1cnc(-c2cccnn2)nc1O)c1ccc(-c2cccc3cnccc23)cc1` [Example 185, 4-hydroxy-N-[(1S)-1-(4-isoquinolin-5-ylphenyl)ethyl]-2-pyridazin-3-ylpyrimidine-5-carboxamide]: the IC50 was no more than 10 nM.

Consider `O=C(NCc1ccc(C(F)(F)F)cc1)c1cnc(-n2cccn2)nc1O` [Example 54, 4-Hydroxy-2-(1H-pyrazol-1-yl)-N-[4-(trifluoromethyl)benzyl]pynmidine-5-carboxamide], for which the IC50 is no more than 10 nM.

On to `COc1ccc(C(NC(=O)c2cnc(-c3cccnn3)nc2O)c2ccc(OC(F)(F)F)cc2)cc1` (single isomer, unassigned) [Example 152, 4-hydroxy-N-{(4-methoxyphenyl)[4-(trifluoromethoxy)phenyl]methyl}-2-(pyradazin-3-yl)pyrimidine-5-carboxamide], for which the IC50 is no more than 10 nM.

For the compound `Cc1cc(C)n(-c2ncc(C(=O)NCc3ccc(OC(F)(F)F)cc3)c(O)n2)n1` [Example 44, 2-(3,5-Dimethyl-1H-pyrazol-1-yl)-4-hydroxy-N-[4-(trifluoromethoxy)benzyl]pyrimidine-5-carboxamide], the half-maximal inhibitory concentration (IC50) fell in the range of 100 to 1000 nM.

Regarding `Cc1nc(-c2ncc(C(=O)NCCc3ccc(F)cc3)c(O)n2)cs1` [Example 32, N-[2-(4-fluorophenyl)ethyl]-4-hydroxy-2-(2-methyl-1,3-thiazol-4-yl)pyrimidine-5-carboxamide], the IC50 lay within 100 to 1000 nM.

As for `CC(C)(NC(=O)c1cnc(-n2cccn2)nc1O)c1ccc(F)c(F)c1` [Example 89, N-[1-(3,4-difluorophenyl)-1-methylethyl]-4-hydroxy-2-(1H-pyrazol-1-yl)pyrimidine-5-carboxamide], the IC50 was no more than 10 nM.

Take `C[C@@H](NC(=O)[C@H](NC(=O)c1cnc(-n2cccn2)nc1O)c1ccccc1)c1ccccc1` [Example 180, 4-Hydroxy-N-((1R)-2-oxo-1-phenyl-2-{[(1R)-1-phenylethyl]amino}ethyl)-2-(1H-pyrazol-1-yl)pyrimidine-5-carboxamide]: the IC50 is 10 to 100 nM.

As for `CC(C)(NC(=O)c1cnc(-c2cnccn2)nc1O)c1ccccc1` [Example 19, 4-Hydroxy-N-(1-methyl-1-phenylethyl)-2-pyrazin-2-ylpyrimidine-5-carboxamide], the IC50 lay within 10 to 100 nM.

For `O=C(c1ccccc1)c1ccc(CNC(=O)c2cnc(-n3cccn3)nc2O)cc1` [Example 95, N-(4-benzoylbenzyl)-4-hydroxy-2-(1H-pyrazol-1-yl)pyrimidine-5-carboxamide], the IC50 was no more than 10 nM.

With `C[C@H](NC(=O)c1cnc(-n2cccn2)nc1O)c1ccc(Br)cc1` [Example 91, N-[(1S)-1-(4-bromophenyl)ethyl]-4-hydroxy-2-(1H-pyrazol-1-yl)pyrimidine-5-carboxamide], the IC50 was no more than 10 nM.

Take `O=C(N[C@@H](CO)c1ccccc1)c1cnc(-n2cccn2)nc1O` [Example 123, 4-hydroxy-N-[(1R)-2-hydroxy-1-phenylethyl]-2-(1H-pyrazol-1-yl)pyrimidine-5-carboxamide]: the 50% inhibitory concentration (IC50) is no more than 10 nM.

Consider `O=C(NC(c1ccccc1)c1ccncc1)c1cnc(-n2cccn2)nc1O` (stereo not drawn) [Example 58, 4-Hydroxy-N-[phenyl(pyridin-4-yl)methyl]-2-(1H-pyrazol-1-yl)pyrimidine-5-carboxamide], for which the IC50 was no more than 10 nM.

On to `COc1ccc(C(NC(=O)c2cnc(-c3cccnn3)nc2O)c2cccc(C#N)c2)cc1` (single isomer, unassigned) [Example 148, N-[(3-cyanophenyl)(4-methoxyphenyl)methyl]-4-hydroxy-2-(pyridazin-3-yl)pyrimidine-5-carboxamide], for which the IC50 is no more than 10 nM.

As for `Cc1csc(C(C)NC(=O)c2cnc(-n3cccn3)nc2O)n1` (stereo not drawn) [Example 117, 4-hydroxy-N-[1-(4-methyl-1,3-thiazol-2-yl)ethyl]-2-(1H-pyrazol-1-yl)pyrimidine-5-carboxamide hydrochloride], the IC50 is no more than 10 nM.

In the case of `O=C(NCc1ccc2c(c1)CCO2)c1cnc(-n2cccn2)nc1O` [Example 101, N-(2,3-dihydro-1-benzofuran-5-ylmethyl)-4-hydroxy-2-(1H-pyrazol-1-yl)pyrimidine-5-carboxamide], the half-maximal inhibitory concentration (IC50) is no more than 10 nM.

With `O=C(N[C@H](c1ccccc1)[C@@H](O)c1ccccc1)c1cnc(-c2cccnn2)nc1O` [Example 138], the IC50 is no more than 10 nM.

On to `COc1ccc(C(NC(=O)c2cnc(-c3cccnn3)nc2O)c2nc(C)cs2)cc1` (single isomer, unassigned) [Example 145, 4-hydroxy-N-[(4-methoxyphenyl)(4-methyl-1,3-thiazol-2-yl)methyl]-2-(pyridazin-3-yl)pyrimidine-5-carboxamide], for which the IC50 was no more than 10 nM.

For the compound `O=C(N[C@H](CO)c1ccccc1)c1cnc(-n2cccn2)nc1O` [Example 122, 4-hydroxy-N-[(1S)-2-hydroxy-1-phenylethyl]-2-(1H-pyrazol-1-yl)pyrimidine-5-carboxamide], the IC50 was in the range of 10 to 100 nM.

`O=C(NCc1cccc2ccccc12)c1cnc(-n2cccn2)nc1O` [Example 56, 4-Hydroxy-N-(1-naphthylmethyl)-2-(1H-pyrazol-1-yl)pyrimidine-5-carboxamide]: the IC50 is 10 to 100 nM.

`CCC(CC)(NC(=O)c1cnc(-n2cccn2)nc1O)c1ccccc1` [Example 98, N-(1-ethyl-1-phenylpropyl)-4-hydroxy-2-(1H-pyrazol-1-yl)pyrimidine-5-carboxamide]: the IC50 was no more than 10 nM.

Consider `C[C@H](NC(=O)c1cnc(-c2cccnn2)nc1O)c1ccc2c(c1)OCCO2` [Example 140, N-[(1S)-1-(2,3-dihydro-1,4-benzodioxin-6-yl)ethyl]-4-hydroxy-2-(pyridazin-3-yl)pyrimidine-5-carboxamide], for which the IC50 is no more than 10 nM.

For `COc1ccc(C(NC(=O)c2cnc(-c3cccnn3)nc2O)c2ccc(Cl)nc2)cc1` (stereo not drawn) [Example 169, N-[(6-chloropyridin-3-yl)(4-methoxyphenyl)methyl]-4-hydroxy-2-(pyridazin-3-yl)pyrimidin-5-carboxamide], the IC50 is no more than 10 nM.

Turning to `CC[C@H](NC(=O)c1cnc(-n2cc(C)cn2)nc1O)c1ccccc1` [Example 133, 4-hydroxy-2-(4-methyl-1H-pyrazol-1-yl)-N-[(1S)-1-phenylpropyl]pyrimidine-5-carboxamide], the concentration for half-maximal inhibition (IC50) is no more than 10 nM.

Consider `C[C@H](NC(=O)c1cnc(-n2cccn2)nc1O)c1ccc2ccccc2c1` [Example 121, 4-hydroxy-N-[(1S)-1-(naphthalen-2-yl)ethyl]-2-(1H-pyrazol-1-yl)pyrimidine-5-carboxamide], for which the IC50 is no more than 10 nM.
